≈ marks a conversion by molar mass, not a printed value.
Legend:
[1] = test system: ALVA 101; assay: Cytotoxicity GI50 (MTT and thymidine incorporation), ALVA 101; type: cell-based; conditions: Homo sapiens
Method: (§1) To confirm this observation, we compared the cytotoxicities of CMT-3 and doxycycline for a panel of common human prostate cancer cell lines. Cytotoxicity was measured using the MTT assay (see above) and a cellular thymidine incorporation assay as described by Lokeshwar et al. (1995a). The 50% growth inhibition (GI50) values obtained using both assays were identical. As shown in the data summarized in Table 3, below, CMT-3 was two- to eight-fold more cytotoxic than doxycycline.
(§2) Growth inhibition was calculated from linear regression of the dose-response curves generated for each experiment using log(dose) vs. cell proliferation (% of control). Correlation coefficient (r) was always ≧0.95 (negative). Results are presented as Mean±SEM of at least three GI50 values calculated from each experiment.

[2] = test system: BPH-1; assay: Cytotoxicity GI50 (MTT and thymidine incorporation), BPH-1; type: cell-based; conditions: Homo sapiens
Method: as §1, §2

[3] = test system: DU 145; assay: Cytotoxicity GI50 (MTT and thymidine incorporation), DU 145; type: cell-based; conditions: Homo sapiens
Method: as §1, §2

[4] = test system: LNCaP; assay: Cytotoxicity GI50 (MTT and thymidine incorporation), LNCaP; type: cell-based; conditions: Homo sapiens
Method: as §1, §2

[5] = test system: MAT LyLu; assay: Cytotoxicity GI50 (MTT and thymidine incorporation), MAT LyLu; type: cell-based; conditions: Rattus norvegicus
Method: as §1, §2

[6] = test system: PC-3; assay: Cytotoxicity GI50 (MTT and thymidine incorporation), PC-3; type: cell-based; conditions: Homo sapiens
Method: as §1, §2

[7] = test system: TSU PR-1; assay: Cytotoxicity GI50 (MTT and thymidine incorporation), TSU PR-1; type: cell-based; conditions: Homo sapiens, TSU-Pr1
Method: as §1, §2

[8] = test system: TSU-PR1 cells; assay: Matrigel invasion assay (Boyden chamber, MTT), TSU-PR1; type: cell-based, human; conditions: Homo sapiens; for IC50: TSU-PR1, 48 hr, read-out: 50% inhibitory dose (IC50), Matrigel invasion
Method: (§3) In this method, 4×10^5 tumor cells were plated on the top chamber of the Boyden chemotaxis assay chambers (Costar Transwell plates). The bottom side of the chamber was a 12 μm-pore polycarbonate filter layered with 0.5 mm thick layer of Matrigel. The bottom well contained a chemoattractant, a serum-free culture-conditioned medium from FHS 733 cells, a line of human fetal lung fibroblasts (ATCC No. HTB-157). Cancer cells (4×10^5) were plated in the top wells of the plates. Doxycycline or CMTs were diluted in a serum-free medium to 5 μg/mL, and were added to both top and bottom chambers. […] After 48 hr incubation, MTT was added to both the top and bottom wells (0.5 mg/mL), and incubation was continued for 4 hr. Wells were then emptied, and the cells from the undersides of the filter were pooled with those in the bottom wells with a filter tip. The reduced MTT (formazan) from top and bottom wells was solubilized with DMSO overnight, and absorbance (O.D.) at 515 nm was measured. The ratio of the O.D. from the bottom wells to that of the total (i.e., O.D. of top plus bottom wells) was taken as the invasive potential. […] The MTT assay procedure also normalizes the coincident inhibition due to the cytotoxic effects of the agents under investigation. Results presented are from three independent experiments.

[9] = test system: Dunning MAT LyLu cells; assay: Matrigel invasion assay (Boyden chamber, MTT), MAT LyLu; type: cell-based, rat
Method: as §3

[10] = test system: Dunning MAT LyLu tumor; assay: MAT LyLu tumor growth and lung metastasis, gavage from day of implant; type: in vivo, Copenhagen rats
Method: (§4) Tumor Generation and Treatment: Dunning MAT LyLu cells were harvested from culture flasks, and a 0.5 mL suspension containing from 2×10^5 to 2×10^6 cells/mL was inoculated into the dorsal flank of adult Copenhagen rats (Harlan Sprague Dawley, Indianapolis, Ind.). The rats weighed 250-300 g, and were 90-100 days old. Tumors were detected by palpating the skin around the site of injection starting 3 days following implant of the tumor cells (Lokeshwar et al. 1995a).
(§5) Drug Treatment In Vivo: Doxycycline and CMT-3 were dissolved in a 2% aqueous solution of a soluble form of carboxymethyl cellulose (Sigma Cat. No. C-5678), and a fresh solution was made up daily. Rats were gavaged daily with 1 mL of the drug solution (concentrations specified below), or the vehicle (2% carboxymethyl cellulose). Tumor growth was recorded three times a week, and rats were weighed weekly. The effect of various treatments on tumor growth was monitored over time using calipers, and the volume approximated to an ellipsoid (i.e., volume=length×width×height×0.5236) (Lokeshwar et al. 1993b). Tumor growth rate was determined by regression analysis of tumor volume versus time, for each tumor-bearing rat. Mean tumor growth rate (time to reach a fixed volume) for each treatment group was then used to evaluate the statistical significance of treatment efficacy using the INSTAT statistical program (Ravitz Software, San Diego, Calif.). Rats were euthanized once the tumor volume reached ≧10 cm^3. At that time animals were necropsied, tumors and lungs were removed and fixed in Bouin's fixative. Macroscopic tumor foci on the lungs were counted under a dissecting microscope.
CMT-3 and doxycycline were tested for antitumor activity in vivo. In this series of experiments, daily gavage of drugs was started on the same day on which tumor cells were implanted in the test animals. Tumor growth was initiated by sub cutis injection of 1×10^6 tumor cells.

[11] = test system: Dunning MAT LyLu tumor; assay: MAT LyLu tumor incidence, growth and metastasis, predosing 7 days before implant; type: in vivo, Copenhagen rats; conditions: for tumor growth rate (time to reach tumor volume of 3 cm^3): 40 mg/kg predosing, animals with measurable tumors, control 15.9±2.0; for decrease in the number of lung metastases: summary b179, predosing context; for remission of palpable tumors (rats): two separate experiments
Method: as §4, §5
In another series of experiments, we examined whether predosing host animals with the drugs would affect tumor growth and metastasis. Daily gavage of control or drugs (doxycycline or CMT-3; 40 mg/kg) was begun 7 days prior to the injections of the MAT LyLu tumor cells (2×10^5 cells/animal) and continued for a total of 21 days.
Tumor growth rates were calculated from thrice-weekly measurement of tumor volume with linear regression analysis of log-transformed volume measurements (Dudak et al. 1996).

[12] = MTS cytotoxicity assay, E-10; conditions: human, E-10 clone of MDA-MB-231 breast carcinoma cells, percent cytotoxicity, two days
[13] = MTS cytotoxicity assay, COLO 205; conditions: human, COLO 205 colon carcinoma cells, percent cytotoxicity, two days
Method: A panel of chemically modified tetracycline compounds and doxycycline were tested for cytotoxicity against two carcinomas: COLO 205 (a human colon carcinoma-derived cell line) and the E-10 clone of MDA-MB-231 (a human breast carcinoma-derived cell line). Cytoxicity was measured using a conventional assay for viability with a tetrazolium salt (MTS). Cells were grown in media containing the CMTs at concentrations ranging from 5 μM to 100 μM for two days. The cells were then incubated with the MTS for several hours before removal of the supernatant medium for determination of formazan, which is generated only by the viable cells. Results are expressed as percent cytotoxicity, which is simply the percent decline in measured formazan concentration in the sampled medium.

[14] = 40 mg/kg daily oral gavage from day of implant

Structure (SMILES) | GI50 [1] | GI50 [2] | GI50 [3] | GI50 [4] | GI50 [5] | GI50 [6] | GI50 [7] | IC50 [8] | metastatic tumor foci in lungs [10, 14] | tumor growth rate (time to reach tumor volume of 3 cm^3) [11] | decrease in the number of lung metastases [11] | remission of palpable tumors (rats) [11] | cytotoxicity at 2 days, 5 µM [12] | cytotoxicity at 2 days, 5 µM [13] | cytotoxicity at 2 days, 10 µM [13] | cytotoxicity at 2 days, 20 µM [13] | cytotoxicity at 2 days, 50 µM [13] | cytotoxicity at 2 days, 100 µM [13] | other results
C[C@H]1c2cccc(O)c2C(=O)C2=C(O)[C@]3(O)C(=O)C(C(N)=O)=C(O)[C@@H](N(C)C)[C@@H]3[C@@H](O)[C@@H]21 [Doxycycline, 6α-deoxy-5-hydroxy-tetracycline, reference compound] | 36.6 ± 2.42 µM | 21.3 ± 5.4 µM | 43.6 ± 9.36 µM | 13.9 ± 2.97 µM | 20 ± 6.4 µM | 36.4 ± 2.5 µM | 41 ± 11 µM | 27 ± 4.3 µg/mL (≈ 60.8 µM) | 43.6±18.8 MTF/rat | 16.7 ± 1.9 days | 33±7.0% | 20% | 0% | 0% | 0% | 45.7% | 58.8% | 66.5% | inhibition at 5 µg/mL ([8]; TSU-PR1, 5 μg/mL, 48 hr): 8 ± 1.8%; inhibition at 5 µg/mL ([9]; Rattus norvegicus, MAT LyLu, 5 μg/mL, 48 hr, read-out: inhibition of invasive/metastatic potential (Matrigel invasion)): 68 ± 4.2%; metastatic tumor foci in lungs ([10]; 20 mg/kg daily oral gavage from day of implant): 39.7±17.2 MTF/rat; tumor incidence ([11]; 40 mg/kg daily, begun 7 days before implant, separate experiments): > 90%; cytotoxicity at 2 days, 10 µM ([12]; 10 μM): 0%; cytotoxicity at 2 days, 20 µM ([12]; 20 μM): 4.5%; cytotoxicity at 2 days, 50 µM ([12]; 50 μM): 24.2%; cytotoxicity at 2 days, 100 µM ([12]; 100 μM): 29.5%
NC(=O)C1=C(O)CC2CC3Cc4cccc(O)c4C(=O)C3=C(O)C2(O)C1=O (centres unmarked) [CMT-3, 6-demethyl-6-deoxy-4-de(dimethylamino)tetracycline] | 6.82 ± 0.75 µM | 10.5 ± 3.7 µM | 5.06 ± 1.18 µM | 5 ± 2.1 µM | 5.2 ± 1.9 µM | 10.6 ± 2.1 µM | 14.7 ± 2.64 µM | 1.7 ± 0.31 µg/mL (≈ 4.58 µM) | 28.9±15.4 MTF/rat | 20.2 ± 3.5 days | 58±8% | 30% | 0% | 17% | 28.8% | 52% | 79% | 85.6% | effect on invasive potential after pretreatment only ([9]; 48 hour pretreatment, no drug in the invasion chamber): only a moderate effect; inhibition of invasive/metastatic potential (Matrigel invasion) ([9]; MAT LyLu, 5 μg/mL, 48 hr): equally inhibited; primary tumor growth versus control group (regression analysis of tumor volumes) ([10]; 20 mg/kg or 40 mg/kg): no significant difference; reduction in MTF relative to the control group ([10]; 40 mg/kg (10 mg/rat)): 51%; time from injection of cells to 3 cm^3 tumor ([10]; control 13.57±2.12 days): 14.0 ± 1.9 days; number of lung metastases ([10]; oral gavage daily for 21 days following implant, controls 59.5±13.9): 28.9±15.4 sites/animal; tumor incidence lower than control or doxycycline groups by ([11]; 40 mg/kg, predosing): 55%±18; tumor remission (inhibition of tumor incidence) ([11]; 40 mg/kg, predosing): tumor remission (inhibition of tumor incidence) occurred; gain in body weights ([11]; at termination (6-month post-treatment observation), control 3%): 12%; decrease in MTF versus controls ([11]; predosing): 37.5%; MTF in treated animals ([11]; predosing, animals with tumors ≧10 cm^3, controls 74.2±6.4): 46.3±6.7; tumor incidence ([11]; preparation of CMT-3 of greater purity): 43%
